# Patent US8450341B2, “Substituted indolin-2-one derivatives and their use as P38 mitogen-activated kinase inhibitors” (Almirall, S.A., priority 2008, dated 2013)
# Target: T1, human p38alfa (SAPKa) enzyme (Homo sapiens, UniProt Q16539)
# T1 construct: purchased University of Dundee
# Test: Inhibition assay: p38alfa enzymatic activity (FRET, biotinylated ATF2 substrate)
# Type: biochemical
# Details: 1 h pre-incubation; ATF2 0.62 μM and ATP 60 μM; 1 h at 25° C.; read-out: p38α IC50
# Procedure: Various concentrations of the test compound or vehicle controls were pre-incubated for one hour with 0.055 μg/ml of the human p38alfa (SAPKa) enzyme (obtained from University of Dundee). […] Addition of the detection reagents, streptavidin-XL665 and anti-phosphoresidue antibody coupled to Europium cryptate, caused the juxtaposition of the cryptate and the XL665 fluorophore, resulting in fluorescence energy transfer (FRET). The FRET intensity depends on the amount of bounded cryptate antibody, which is proportional to the extent of substrate phosphorylation. FRET intensity was measured using Victor 2V spectrofluorometer.
# Data were analyzed by non-linear regression (Hill equation) to generate a dose-response curve.
# T1 sequence (Q16539 whole entry): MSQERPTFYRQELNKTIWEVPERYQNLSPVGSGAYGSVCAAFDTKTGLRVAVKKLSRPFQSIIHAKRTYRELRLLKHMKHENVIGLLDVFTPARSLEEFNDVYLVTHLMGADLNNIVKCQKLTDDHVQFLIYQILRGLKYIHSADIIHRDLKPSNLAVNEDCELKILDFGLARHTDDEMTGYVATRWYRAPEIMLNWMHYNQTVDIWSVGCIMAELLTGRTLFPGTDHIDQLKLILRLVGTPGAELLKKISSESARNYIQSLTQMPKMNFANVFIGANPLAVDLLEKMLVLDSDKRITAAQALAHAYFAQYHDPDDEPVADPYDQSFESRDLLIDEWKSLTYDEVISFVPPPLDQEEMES
row,SMILES,IC50 [nM]
1,"Cc1ccc2c(NC3CC3)noc2c1-c1ccc2c(c1)NC(=O)C21CCCC1 [Example 1, 6′-(3-(Cyclopropylamino)-6-methylbenzo[d]isoxazol-7-yl)spiro[cyclopentane-1,3′-indolin]-2′-one]",0.9
2,"Cc1ccc2c(NC3CC3)noc2c1-c1ccc2c(c1)NC(=O)C2(C)C [Example 6, 6-(3-(Cyclopropylamino)-6-methylbenzo[d]isoxazol-7-yl)-3,3-dimethylindolin-2-one]",0.4
3,"Cc1ccc2c(N)noc2c1-c1ccc2c(c1)NC(=O)C21CCC(F)(F)CC1 [Example 14, 6′-(3-Amino-6-methyl-1,2-benzisoxazol-7-yl)-4,4-difluorospiro[cyclohexane-1,3′-indol]-2′(1′H)-one]",1
4,"Cc1ccc2c(NC3CC3)noc2c1-c1ccc2c(c1)NC(=O)C21CCC(F)(F)CC1 [Example 5, 6′-(3-(Cyclopropylamino)-6-methylbenzo[d]isoxazol-7-yl)-4,4-difluorospiro [cyclohexane-1,3′-indolin]-2′-one]",0.06
5,"Cc1ccc2c(N)noc2c1-c1ccc2c(c1)NC(=O)C21CCC(OCCN2CCOCC2)CC1 (stereo not drawn) [Example 13, 6′-(3-amino-6-methylbenzo[d]isoxazol-7-yl)-4-(2-morpholinoethoxy)spiro[cyclohexane-1,3′-indolin]-2′-one]",3.3
6,"Cc1ccc2c(NC3CC3)noc2c1-c1ccc2c(c1)NC(=O)C21CCOCC1 [Example 4, 6-(3-(Cyclopropylamino)-6-methylbenzo[d]isoxazol-7-yl)-2′,3′,5′,6′-tetrahydrospiro [indoline-3,4′-pyran]-2-one]",0.2
7,"Cc1ccc2c(N)noc2c1-c1ccc2c(c1)NC(=O)C21CCC(C)(O)CC1 (stereo not drawn) [Example 12, 6′-(3-amino-6-methylbenzo[d]isoxazol-7-yl)-4-hydroxy-4-methylspiro[cyclohexane-1,3′-indolin]-2′-one]",0.9
8,"Cc1ccn2c(NCC3CC3)nnc2c1-c1ccc2c(c1)NC(=O)C21CCCC1 [Example 20, 6′-(3-(cyclopropylmethylamino)-7-methyl-[1,2,4]triazolo[4,3-a]pyridin-8-yl)spiro[cyclopentane-1,3′-indolin]-2′-one]",20
9,"Cc1ccc2c(NC3CC3)noc2c1-c1cnc2c(c1)NC(=O)C21CCC(C)(O)CC1 (stereo not drawn) [Example 8, 6′-(3-(cyclopropylamino)-6-methylbenzo[d]isoxazol-7-yl)-4-hydroxy-4-methylspiro[cyclohexane-1,3′-pyrrolo[3,2-b]pyridin]-2′(1′H)-one]",0.65
10,"Cc1ccc2c(NC3CC3)noc2c1-c1cnc2c(c1)NC(=O)C21CCOCC1 [Example 7, 6′-(3-(cyclopropylamino)-6-methylbenzo[d]isoxazol-7-yl)-2,3,5,6-tetrahydrospiro[pyran-4,3′-pyrrolo[3,2-b]pyridin]-2′(1′H)-one]",6.3
11,"O=C1Nc2cc(-c3cccc4c(NC5CC5)noc34)c(Cl)cc2C12CCCC2 [Example 3, 5′-Chloro-6′-(3-(cyclopropylamino)benzo[d]isoxazol-7-yl)spiro[cyclopentane-1,3′-indolin]-2′-one]",4
12,"Cc1ccc2c(N)noc2c1-c1ccc2c(c1)NC(=O)C21CCOCC1 [Example 11, 6-(3-Amino-6-methylbenzo[d]isoxazol-7-yl)-2′,3′,5′,6′-tetrahydrospiro[indoline-3,4′-pyran]-2-one]",10
13,"O=C1Nc2cc(-c3cccc4c(NC5CC5)noc34)ccc2C12CCCC2 [Example 2, 6′-(3-(Cyclopropylamino)benzo[d]isoxazol-7-yl)spiro[cyclopentane-1,3′-indolin]-2′-one]",39
14,"Cc1ccc2c(N)noc2c1-c1ccc2c(c1)NC(=O)C2(C)C [Example 15, 6-(3-Amino-6-methyl-1,2-benzisoxazol-7-yl)-3,3-dimethyl-1,3-dihydro-2H-indol-2-one]",38
15,"Cc1ccc2c(NC3CC3)noc2c1-c1cnc2c(c1)NC(=O)C21CCC(C)(O)CC1 (stereo not drawn) [Example 9, 6′-(3-(cyclopropylamino)-6-methylbenzo[d]isoxazol-7-yl)-4-hydroxy-4-methylspiro[cyclohexane-1,3′-pyrrolo[3,2-b]pyridin]-2′(1′H)-one]",0.4
